{"source": "patent US7318917B2", "about": "“Rapid assays for neurotransmitter transporters” (Vanderbilt University, priority 2002, dated 2008)", "assay_type_in_all_cases": "cell-based", "key": {"NET [1]": {"molecular_target": "T1, NET (Homo sapiens, UniProt P23975)", "T1 sequence (P23975 whole entry)": "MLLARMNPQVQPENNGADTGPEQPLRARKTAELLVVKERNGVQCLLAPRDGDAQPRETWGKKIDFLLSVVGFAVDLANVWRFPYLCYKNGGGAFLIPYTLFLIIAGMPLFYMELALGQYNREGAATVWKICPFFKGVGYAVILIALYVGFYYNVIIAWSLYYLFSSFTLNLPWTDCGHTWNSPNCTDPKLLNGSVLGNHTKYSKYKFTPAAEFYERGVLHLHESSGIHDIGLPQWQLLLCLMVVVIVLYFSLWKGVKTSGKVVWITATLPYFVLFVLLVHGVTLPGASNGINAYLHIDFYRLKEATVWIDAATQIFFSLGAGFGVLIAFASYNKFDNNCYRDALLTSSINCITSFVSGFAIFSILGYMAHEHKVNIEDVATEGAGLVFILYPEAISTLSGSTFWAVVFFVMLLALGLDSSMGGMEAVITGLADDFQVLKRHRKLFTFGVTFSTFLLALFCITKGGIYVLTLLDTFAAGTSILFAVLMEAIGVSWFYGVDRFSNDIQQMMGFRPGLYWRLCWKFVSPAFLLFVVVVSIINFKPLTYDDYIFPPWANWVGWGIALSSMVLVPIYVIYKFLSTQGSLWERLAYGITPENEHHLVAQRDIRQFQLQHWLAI", "assay": "[3H]NE accumulation (radiolabeled transport assay) in hNET-transfected HEK-293 cells", "set-up": "expressed in transfected cells", "conditions": "Cheng-Prusoff correction, non-specific by 10 μM desipramine, N=5, mean±S.E.M., read-out: Ki, inhibition of [3H]NE accumulation", "protocol": "FIG. 1. MPP^+ and ASP^+ inhibit NE accumulation. [^3H]NE accumulation was measured in the hNET-transfected HEK-293 cells in the presence of increasing concentrations of ASP^+ or MPP^+ and normalized to similar data in the absence of an inhibitor. […]. The data were fit to NE transport remaining by the equation y=100/(1+([I]/IC50)^n), where [I] is the concentration of ASP^+ or MPP^+ and Ki values were determined using Cheng-Prusoff correction for substrate concentration. […] Values are represented as means±S.E.M., N=5.\nAll accumulation studies were performed at room temperature (22° C.) unless otherwise indicated. HEK-hNET cells were plated on poly-L-lysine coated 24-well tissue culture plates at 10^5 cells per well three days prior to performing transport assays. The cells were at approximately 90% confluence on the third day. The medium was removed by aspiration. Cells were then pre-incubated for 10 min in Krebs-Ringer's-Hepes (KRH: in mM 130 NaCl, 1.3 KCl, 2.2 CaCl2, 1.2 MgSO4, 1.2 KH2PO4, 10 Hepes, and 1.8 g/L glucose, pH 7.4) medium with or without 10 μM desipramine. […]. Pargyline (10 μM) and ascorbic acid (10 μM) were added to prevent metabolism and oxidation of NE, respectively. The assay mixture was aspirated after 10 minutes and cells were washed three times with 4° C. […] Accumulated [^3H]NE was determined by liquid scintillation of 1% (w/v) sodium dodecylsulphate solubilized cells. […]"}, "NET [2]": {"molecular_target": "T1, NET", "set-up": "expressed in transfected cells", "conditions": "FLEXstation, FIG. 10A", "protocol": "Medium for the transfected lines was supplemented with G418 (250 μg/ml). Trypsin, glutamine, penicillin, streptomycin, G418, and phosphate-free DMEM were purchased from Life Technologies, Inc. or obtained from the Vanderbilt Media Core. For all transport assays, cells were plated on poly-D-lysine (0.1 mg/ml)-coated (0.1 mg/ml)-coated 96-well plates. HEK cells were plated at 12,500 cells per well in 96 well plates, HEK-DAT cells were plated at 15,000 cells per well, HEK-NET cells were plated at 20,000 per well, and HEK-SERT cells were plated at 20,000 per well in a volume of 200 uL. HEK, HEK-DAT, and HEK-SERT cells were grown for 48 hours and HEK-NET cells were grown for 72 hours to a confluency of ˜90%.\nASP^+ was obtained from Molecular Probes, Inc. and dissolved in KRH buffer to indicated concentrations. Trypan Blue was obtained from Sigma as a 0.4% solution and diluted to a final concentration of 30 uM in KRH buffer.\nTo limit the time delay between the addition of ASP^+ and the measurement of accumulation of ASP^+ during the kinetic assays, plates were divided in half and assayed one half at a time. At assay, the medium was removed from wells in the first 6 columns by aspiration, and the cells were incubated with Trypan Blue in KRH buffer for 20 minutes at 37° C.in room air. Then, medium was removed from the wells in the last 6 columns and replaced with Trypan Blue in KRH buffer."}, "DAT": {"molecular_target": "DAT (Homo sapiens, UniProt Q01959)", "sequence (Q01959 whole entry)": "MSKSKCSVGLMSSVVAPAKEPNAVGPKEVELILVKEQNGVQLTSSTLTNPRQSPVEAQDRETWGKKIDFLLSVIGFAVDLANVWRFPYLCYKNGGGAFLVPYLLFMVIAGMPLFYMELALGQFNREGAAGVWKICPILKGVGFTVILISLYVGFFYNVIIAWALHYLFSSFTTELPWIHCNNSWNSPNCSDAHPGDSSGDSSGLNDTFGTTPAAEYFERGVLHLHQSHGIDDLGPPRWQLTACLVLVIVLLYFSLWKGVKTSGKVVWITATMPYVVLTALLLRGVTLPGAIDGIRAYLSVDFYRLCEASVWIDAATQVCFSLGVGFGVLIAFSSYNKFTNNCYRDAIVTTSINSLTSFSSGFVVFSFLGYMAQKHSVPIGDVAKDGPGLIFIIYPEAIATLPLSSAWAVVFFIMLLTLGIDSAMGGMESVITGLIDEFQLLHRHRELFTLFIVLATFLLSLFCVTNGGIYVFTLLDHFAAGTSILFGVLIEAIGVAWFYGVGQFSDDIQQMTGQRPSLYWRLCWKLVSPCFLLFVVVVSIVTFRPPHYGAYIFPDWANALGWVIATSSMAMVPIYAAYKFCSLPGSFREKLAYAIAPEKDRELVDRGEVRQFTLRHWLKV", "assay": "ASP+ accumulation in hDAT-transfected HEK cells by confocal fluorescence microscopy", "set-up": "expressed in transfected cells; host or cells: HEK-293", "conditions": "2 mM ASP as printed in the FIG. 3 legend", "protocol": "FIGS. 3A-3L. Monoamine transporters interact with ASP^+. Like HEK-hNET cells hDAT and hSERT transfected cells accumulate ASP^+. hNET (FIGS. 3A, 3B & 3C), hDAT (FIGS. 3D, 3E & 3F), hSERT (FIGS. 3G, 3H & 3I) and HEK-293 (FIGS. 3J, 3K & 3L) were exposed to 2 mM ASP for the times indicated in FIGS. 3J, 3K & 3L. The color gradient represented in FIG. 3J denotes the corresponding ASP^+ intensity values.\nHEK-hNET cells were plated on 35 mm glass bottom Petri-dishes (MatTek, Ashland, Mass.) coated with poly-L-lysine three days prior to experimentation. The culture medium was aspirated, cells were immediately mounted on a Zeiss 410 confocal microscope and the microscope was focused on the center of the monolayer of cells. During the confocal measurment cells remain without buffer for approximately thirty seconds. Background autoflourescence was established by collecting images for ten seconds prior to the addition of KRH (see Radiolabeled Transport),[…] Glucose, 10 μM ascorbic acid, 10 μM pargalyine, 10 μM tropolone (Sigma, Boulder CO), and ASP^+. […] The effects of photobleaching on ASP^+ accumulation were determined by examining the rate of ASP^+ fluorescence at various acquisition rates. […]\nThe fluorescent images were processed using MetaMorph imaging software (Universal Imaging Corporation, Downington Pa.). […] All cells are subtracted against auto-fluorescence."}}}
{"smiles": "CN(C)c1ccc(C=Cc2cc[n+](C)cc2)cc1", "note": "[ASP^+, 4-(4-dimethylaminostyrl)-N-methylpyridinium]", "values": [{"measurement": "Ki", "setting": "NET [1]", "result": "0.78 ± 0.077", "unit": "µM"}, {"measurement": "concentration-response of ASP+ accumulation, NET", "setting": "NET [2]", "result": "concentration-dependent accumulation"}, {"measurement": "ASP+ accumulation by hDAT transfected cells", "setting": "DAT", "result": "accumulate"}]}
